Paper PMC3863390 (Molecular nutrition & food research, 2012)
Where “and” joins values, the source holds several entries; their conditions need not be identical. Equal values may be shown once.

How the values were obtained:
[1] = test system: human bladder cancer cell lines (HBCCs); format: cell-based; details: p>0.8, data not shown
RT4 cells [2] = test: SRB cell viability assay in RT4 cells; format: cell-based, human; details: for RT4 cell viability inhibition: 20 μM, 48 hr
PARP [3] = test: Western blot of PARP cleavage, RT4; format: cell-based, human; details: 20 μM, 48 hr
survivin [4] = test: Western blot of survivin expression, UMUC3; format: cell-based, human; details: 20 μM, 48 hr
J82 cells [5] = test: SRB cell viability assay in J82 cells; format: cell-based; details: Homo sapiens, J82, 48 h, read-out: IC50, cell viability
HER2/neu [6] = test: Western blot of HER2/neu expression, RT4; format: cell-based, human; details: 20 μM, 48 hr
RT4 cells [7] = test: Cell cycle analysis by flow cytometry, RT4; format: cell-based, human; details: 20 μM, 48 hr
UMUC3 xenograft = UMUC3 xenograft in athymic nude mice; format: in vivo, mouse; details: 295 μmol/kg/day oral gavage, 2 weeks
EGFR [8] = test: Western blot of EGFR expression, RT4; format: cell-based, human; details: 20 μM, 48 hr
J82 cells [9] = test: Cell cycle analysis by flow cytometry, J82; format: cell-based, human; details: 20 μM, 48 hr
survivin [10] = details: RT4; 20 μM, 48 hr
HER2/neu [11] = test: Western blot of HER2/neu expression, UMUC3; format: cell-based, human; details: 20 μM, 48 hr
caspase 3/7 = test: Apo-ONE caspase-3/7 assay, RT4; format: cell-based, human; details: 10 μM, 48 hr
UMUC3 cells = test: cells; format: cell-based; details: Homo sapiens, UMUC3, 48 h, read-out: IC50, cell viability
EGFR [12] = test: Western blot of EGFR expression, UMUC3; format: cell-based, human; details: 20 μM, 48 hr
[13] = test system: Normal human bladder urothelial cells (NHU); test: tissue or blood; format: cell-based
PARP [14] = test: Western blot of PARP cleavage, UMUC3; format: cell-based, human; details: 20 μM, 48 hr

## C[S+]([O-])CCCCN=C=S (centres unmarked) [R-sulforaphane]
[1]
  difference between isomers in inhibitory effects of HBCCs: no difference

## C[S@+]([O-])CCCCN=C=S [S-sulforaphane]
[1]
  difference between isomers in inhibitory effects of HBCCs: no difference

## C=CCN=C=S [allyl isothiocyanate]
RT4 cells [2]
  RT4 cell viability inhibition: 28%

## C[S+]([O-])CCCN=C=S (centres unmarked) [iberin]
RT4 cells [2]
  RT4 cell viability inhibition: 12%

## C[S+]([O-])CCCCN=C=S (centres unmarked) [sulforaphane]
PARP [3]
  PARP cleavage increase: 2.3 fold
Survivin [4]
  survivin expression downregulated: 35%
J82 cells [5]
  IC50: 7.7 ± 1.8 µM
RT4 cells [2]
  RT4 cell viability inhibition: 64%
RT4 cells [2]; Homo sapiens, RT-4, 48 h, read-out: IC50, cell viability
  IC50: 11.2 ± 0.3 µM
HER2/neu [6]
  decrease of HER2/neu expression: 10%
RT4 cells [7]
  increase of cells in the G2/M phase compared to control: 2.6 fold
UMUC3 xenograft
  inhibition of tumor growth rate: 42%
UMUC3 xenograft; versus vehicle control soy bean oil
  decrease in final tumor weight: 33%
EGFR [8]
  changes in EGFR expression: does not lead to significant changes
J82 cells [9]
  increase of cells in the G2/M phase: 3 fold
Survivin [10]
  decrease in survivin expression: 51% and 44%
HER2/neu [11]
  HER2/neu downregulated: 90%
Caspase 3/7
  increase in caspase 3/7 activity compared to control: 2.5 fold
UMUC3 cells
  IC50: 5.66 ± 1.2 µM
EGFR [12]
  EGFR protein expression downregulated: 54%
[13]; Homo sapiens, 72 h, read-out: inhibition of NHU
  inhibition at 20 µM: 62%
[13]; NHU cells, 72 hr
  IC50, cell viability: not reached
PARP [14]
  PARP cleavage increase: 3.6 fold
